pIC50: −log10 of the molar value.
Tests used:
[1] = molecular target: Urease (Canavalia ensiformis) (UniProt P07374); assay: Inhibition of jack bean urease assessed as reduction in ammonia production at 0.5 mM using urea as substrate incubated for 15 mins by indophenol method
[2] = molecular target: Urease (Canavalia ensiformis, UniProt P07374); assay: Inhibition of jack bean urease assessed as reduction in ammonia production using urea as substrate incubated for 15 mins by indophenol method
Urease, sequence (P07374 whole entry): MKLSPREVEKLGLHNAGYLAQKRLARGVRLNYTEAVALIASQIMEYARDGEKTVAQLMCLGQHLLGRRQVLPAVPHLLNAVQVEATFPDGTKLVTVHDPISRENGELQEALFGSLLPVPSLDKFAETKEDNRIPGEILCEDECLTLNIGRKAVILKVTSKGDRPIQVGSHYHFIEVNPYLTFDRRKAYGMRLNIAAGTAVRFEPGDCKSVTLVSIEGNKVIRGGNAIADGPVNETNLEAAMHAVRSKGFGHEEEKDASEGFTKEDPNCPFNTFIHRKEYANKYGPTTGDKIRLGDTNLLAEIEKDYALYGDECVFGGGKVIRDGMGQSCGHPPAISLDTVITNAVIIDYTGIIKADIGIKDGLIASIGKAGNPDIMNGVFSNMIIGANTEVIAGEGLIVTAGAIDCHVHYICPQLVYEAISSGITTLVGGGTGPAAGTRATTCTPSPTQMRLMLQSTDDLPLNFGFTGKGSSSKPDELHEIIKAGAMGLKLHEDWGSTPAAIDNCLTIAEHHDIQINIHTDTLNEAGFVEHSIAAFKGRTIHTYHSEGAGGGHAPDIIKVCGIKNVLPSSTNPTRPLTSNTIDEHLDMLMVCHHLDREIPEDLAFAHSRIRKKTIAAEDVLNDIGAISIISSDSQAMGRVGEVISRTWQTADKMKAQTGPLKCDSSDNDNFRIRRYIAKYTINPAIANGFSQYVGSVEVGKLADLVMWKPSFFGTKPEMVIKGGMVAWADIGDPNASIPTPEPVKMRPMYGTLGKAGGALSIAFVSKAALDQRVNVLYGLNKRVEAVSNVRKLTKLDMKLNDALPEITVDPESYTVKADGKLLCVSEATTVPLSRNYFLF

Urease (Canavalia ensiformis), sequence (P07374 whole entry, looked up): as the sequence (P07374 whole entry) above

Work on CCCCCCCCn1c2ccc(C(C)=O)cc2c2cc(C(=O)/C=C/c3ccc([N+](=O)[O-])cc3)ccc21 yielded an inhibition [1] of 29.3%.

With CCCCCCCCn1c2ccc(C(C)=O)cc2c2cc(C(=O)/C=C/c3cc(OC)c(OC)c(OC)c3)ccc21 the pIC50 [2] was 3.82 and the inhibition [1] was 74.5%.

In the case of CCCCCCCCn1c2ccc(C(C)=O)cc2c2cc(C(=O)/C=C/c3ccc(Br)cc3)ccc21, the inhibition [1] was 24.9%.

In the case of CCCCCCCCn1c2ccc(C(C)=O)cc2c2cc(C(=O)/C=C/c3cccc([N+](=O)[O-])c3)ccc21, the pIC50 [2] was 4.85 and the inhibition [1] was 94.4%.

CCCCCCCCn1c2ccc(C(C)=O)cc2c2cc(C(=O)/C=C/c3cccc(OC)c3)ccc21 was tested, and the inhibition [1] was 7.9%.

CCCCCCCCn1c2ccc(C(C)=O)cc2c2cc(C(=O)/C=C/c3ccccc3Br)ccc21 showed a pIC50 [2] of 5.05 and an inhibition [1] of 94.8%.

Work on CCCCCCCCn1c2ccc(C(C)=O)cc2c2cc(C(=O)/C=C/c3ccccc3Cl)ccc21 yielded an inhibition [1] of 24.5%.

In the case of CCCCCCCCn1c2ccc(C(C)=O)cc2c2cc(C(=O)/C=C/c3ccco3)ccc21, the pIC50 [2] was 4.61 and the inhibition [1] was 78.7%.

Compound CCCCCCCCn1c2ccc(C(C)=O)cc2c2cc(C(=O)/C=C/c3ccc(Cl)cc3)ccc21 has a pIC50 [2] of 4.61 and an inhibition [1] of 95.1%.

CCCCCCCCn1c2ccc(C(C)=O)cc2c2cc(C(=O)/C=C/c3ccc(N(C)C)cc3)ccc21 was tested, and the pIC50 [2] was 3.83 and the inhibition [1] was 22.6%.

For CCCCCCCCn1c2ccc(C(C)=O)cc2c2cc(C(=O)/C=C/c3ccccc3[N+](=O)[O-])ccc21, the inhibition [1] was 18.6%.

Compound CCCCCCCCn1c2ccc(C(C)=O)cc2c2cc(C(=O)/C=C/c3ccc(OC)cc3)ccc21 has a pIC50 [2] of 5.16 and an inhibition [1] of 98.5%.

Work on CCCCCCCCn1c2ccc(C(C)=O)cc2c2cc(C(=O)/C=C/c3ccccc3)ccc21 yielded an inhibition [1] of 19.3%.

With CCCCCCCCn1c2ccc(C(C)=O)cc2c2cc(C(=O)/C=C/c3cccc(Br)c3)ccc21 the inhibition [1] was 10.9%.

Reference: ChEMBL document CHEMBL4665672, “Developing new hybrid scaffold for urease inhibition based on carbazole-chalcone conjugates: Synthesis, assessment of therapeutic potential and computational docking analysis” (Bioorg Med Chem, 2019)
